{"source": "patent US12194013B2", "about": "(SICHUAN JIUZHANG BIOLOGICAL SCIENCE AND TECHNOLOGY CO., LTD., priority 2018, dated 2025)", "key": {"[1]": {"tested_on": "head and neck squamous cell carcinoma SCCVII cell lines", "assay": "Transplanted tumor of head and neck squamous cell carcinoma SCCVII cell lines in mice", "type": "in vivo, mouse", "details": "30 mg·kg^−1 intraperitoneally once a day; for Tumor volume / Tumor weight / Tumor inhibition rate: C3H/HeJ mice, SCCVII; for Tumor weight: at end of experiment; for Tumor inhibition rate: from average tumor weight vs negative group", "method": "When the cells grew vigorously, they were digested with 0.25% trypsin, washed with phosphate buffer, and prepared as cell suspension at 3×10^6 cells/ml for use.\n0.1 ml cell suspension was subcutaneously injected into the armpit of the left forelimb of mice. They were randomly divided into groups, 10 mice for one group, including test drug group 1, test drug group 2, test drug group 3, test drug group 4, test drug group 5, test drug group 6, test drug group 7, and negative group (N.S.), respectively. The drug was given on the second day after inoculation. The test drug group was intraperitoneally injected at a dose of 30 mg·kg^−1, once a day, and the administration volume was 1.0 ml; in the negative group, the same volume of normal saline was intraperitoneally injected, once a day.\nThe tumor volume (v=0.52×the long diameter of transplanted tumor L×the shortest diameter of transplanted tumor W^2) was measured on the 5th day after inoculation, and the mice were weighed every three days. When the tumor volume of the negative group was about 1.0 cm^3, the experiment was stopped, and the mice were killed by cervical dislocation and weighed."}, "[2]": {"tested_on": "human skin squamous cell carcinoma A431 cells", "assay": "Detecting apoptosis by flow cytometry (Annexin V-FITC/PI)", "type": "cell-based", "details": "72 h", "method": "(§1) A431 cell lines were seeded in IMDM medium, containing 10% fetal bovine serum, 100 U·ml^−1 penicillin, and 100 μg·ml^−1 streptomycin, and then cultured in 37° C., 5% CO2 incubator. Cells were passaged one generation at 48-72 h, and the cells in the logarithmic growth phase were collected for the experiment.\nThe cells of each group treated with different concentrations of test substance for 72 h were collected and made into single cell suspension. The living cells were labeled with Annexin V-FITC and PI. After mixing, the cells were incubated in dark for 15 min at room temperature, and then 1× binding buffer was added and mixed, before the apoptotic cells were detected by flow cytometry and analyzed by Multicyc AV software."}, "[3]": {"tested_on": "human skin squamous cell carcinoma A431 cells", "assay": "Inhibition of cell proliferation (MTT method)", "type": "cell-based", "details": "72 h", "method": "as §1\nThe cells in logarithmic growth phase were inoculated on 96 well plate and further cultured for 24 hours, then divided into experimental groups and blank control group. […] The blank control group was added with the same volume of IMDM culture medium without test substance. Six multiple wells were set for each concentration. After 72 hours, the newly prepared MTT solution was added. After further culturing for 4 h, DMSO solution was added and shook, so that the crystals were fully dissolved. The absorbance value (A570 nm) of each well was measured on the microplate reader."}}, "note": "Marks after values point to notes of the source that are not given here.", "data": [{"smiles": "O=C(/C=C/c1ccc(O)cc1)O[C@@H]1C[C@](O)(C(=O)O)C[C@@H](O)[C@H]1O", "note": "[Coumaroylquinic acid]", "values": [{"measurement": "inhibitory effect on the tumors in mice transplanted with SCCVII cell lines, compared with the negative group (in words)", "setting": "[1]", "result": "not obvious"}, {"measurement": "Tumor volume", "setting": "[1]; 5 d after inoculation", "result": "0.124 ± 0.047", "unit": "cm^3"}, {"measurement": "Tumor volume", "setting": "[1]; 8 d after inoculation", "result": "0.258 ± 0.121", "unit": "cm^3"}, {"measurement": "Tumor volume", "setting": "[1]; 10 d after inoculation", "result": "0.369 ± 0.114", "unit": "cm^3"}, {"measurement": "Tumor volume", "setting": "[1]; 13 d after inoculation", "result": "0.604 ± 0.225* cm^3"}, {"measurement": "Tumor volume", "setting": "[1]; 15 d after inoculation", "result": "0.653 ± 0.111* cm^3"}, {"measurement": "Tumor volume", "setting": "[1]; 18 d after inoculation", "result": "0.811 ± 0.108* cm^3"}, {"measurement": "Tumor volume", "setting": "[1]; 22 d after inoculation", "result": "0.954 ± 0.203* cm^3"}, {"measurement": "Tumor weight", "setting": "[1]", "result": "2.11 ± 0.129^ g"}, {"measurement": "Tumor inhibition rate", "setting": "[1]", "result": 13.17, "unit": "%"}, {"measurement": "Apoptosis rate of each experimental group", "setting": "[2]; 1 μg/ml", "result": "0.53 ± 0.03", "unit": "%"}, {"measurement": "Apoptosis rate of each experimental group", "setting": "[2]; 2 μg/ml", "result": "0.55 ± 0.05", "unit": "%"}, {"measurement": "Apoptosis rate of each experimental group", "setting": "[2]; 4 μg/ml", "result": "0.56 ± 0.04", "unit": "%"}, {"measurement": "Apoptosis rate of each experimental group", "setting": "[2]; 8 μg/ml", "result": "0.64 ± 0.13", "unit": "%"}, {"measurement": "Apoptosis rate of each experimental group", "setting": "[2]; 16 μg/ml", "result": "0.69 ± 0.41", "unit": "%"}, {"measurement": "Apoptosis rate of each experimental group", "setting": "[2]; 32 μg/ml", "result": "1.37 ± 0.36", "unit": "%"}, {"measurement": "Apoptosis rate of each experimental group", "setting": "[2]; 64 μg/ml", "result": "2.26 ± 0.69", "unit": "%"}, {"measurement": "Apoptosis rate of each experimental group", "setting": "[2]; 128 μg/ml", "result": "3.07 ± 1.23", "unit": "%"}, {"measurement": "inhibitory effect on human skin squamous cell carcinoma A431 (in words)", "setting": "[3]; 1-128 μg/ml", "result": "not obvious"}, {"measurement": "The inhibition rate of each experimental group", "setting": "[3]; A431 cells, 1 μg/ml", "result": "1.24 ± 0.81", "unit": "%"}, {"measurement": "The inhibition rate of each experimental group", "setting": "[3]; A431 cells, 2 μg/ml", "result": "1.28 ± 0.69", "unit": "%"}, {"measurement": "The inhibition rate of each experimental group", "setting": "[3]; A431 cells, 4 μg/ml", "result": "1.33 ± 0.42", "unit": "%"}, {"measurement": "The inhibition rate of each experimental group", "setting": "[3]; A431 cells, 8 μg/ml", "result": "2.41 ± 0.58", "unit": "%"}, {"measurement": "The inhibition rate of each experimental group", "setting": "[3]; A431 cells, 16 μg/ml", "result": "2.62 ± 0.86", "unit": "%"}, {"measurement": "The inhibition rate of each experimental group", "setting": "[3]; A431 cells, 32 μg/ml", "result": "5.77 ± 0.92", "unit": "%"}, {"measurement": "The inhibition rate of each experimental group", "setting": "[3]; A431 cells, 64 μg/ml", "result": "6.83 ± 1.02", "unit": "%"}, {"measurement": "The inhibition rate of each experimental group", "setting": "[3]; A431 cells, 128 μg/ml", "result": "8.11 ± 0.63", "unit": "%"}]}, {"smiles": "O=C(/C=C/c1ccc(O)c(O)c1)O[C@@H]1C[C@](O)(C(=O)O)C[C@@H](O)[C@H]1O", "note": "[Chlorogenic acid]", "values": [{"measurement": "inhibitory effect on the tumors in mice transplanted with SCCVII cell lines, compared with the negative group (in words)", "setting": "[1]", "result": "significant differences"}, {"measurement": "Tumor volume", "setting": "[1]; 5 d after inoculation", "result": "0.124 ± 0.083", "unit": "cm^3"}, {"measurement": "Tumor volume", "setting": "[1]; 8 d after inoculation", "result": "0.222 ± 0.079", "unit": "cm^3"}, {"measurement": "Tumor volume", "setting": "[1]; 10 d after inoculation", "result": "0.347 ± 0.102", "unit": "cm^3"}, {"measurement": "Tumor volume", "setting": "[1]; 13 d after inoculation", "result": "0.436 ± 0.172* cm^3"}, {"measurement": "Tumor volume", "setting": "[1]; 15 d after inoculation", "result": "0.483 ± 0.136* cm^3"}, {"measurement": "Tumor volume", "setting": "[1]; 18 d after inoculation", "result": "0.545 ± 0.224* cm^3"}, {"measurement": "Tumor weight", "setting": "[1]", "result": "1.43 ± 0.074", "unit": "g"}, {"measurement": "Tumor inhibition rate", "setting": "[1]", "result": 41.15, "unit": "%"}, {"measurement": "Apoptosis rate of each experimental group", "setting": "[2]; 1 μg/ml", "result": "0.57 ± 0.04", "unit": "%"}, {"measurement": "Apoptosis rate of each experimental group", "setting": "[2]; 2 μg/ml", "result": "0.57 ± 0.05", "unit": "%"}, {"measurement": "Apoptosis rate of each experimental group", "setting": "[2]; 4 μg/ml", "result": "0.61 ± 0.06", "unit": "%"}, {"measurement": "Apoptosis rate of each experimental group", "setting": "[2]; 8 μg/ml", "result": "0.71 ± 0.11", "unit": "%"}, {"measurement": "Apoptosis rate of each experimental group", "setting": "[2]; 16 μg/ml", "result": "1.99 ± 0.57", "unit": "%"}, {"measurement": "Apoptosis rate of each experimental group", "setting": "[2]; 32 μg/ml", "result": "4.56 ± 1.08", "unit": "%"}, {"measurement": "Apoptosis rate of each experimental group", "setting": "[2]; 64 μg/ml", "result": "4.73 ± 1.22", "unit": "%"}, {"measurement": "Apoptosis rate of each experimental group", "setting": "[2]; 128 μg/ml", "result": "4.87 ± 0.74", "unit": "%"}, {"measurement": "inhibition at 1 µg/mL", "setting": "[3]; Homo sapiens, A-431, A431 cells, 1 μg/ml, read-out: The inhibition rate of each experimental group", "result": "1.12 ± 0.47", "unit": "%"}, {"measurement": "inhibition at 2 µg/mL", "setting": "[3]; Homo sapiens, A-431, A431 cells, 2 μg/ml, read-out: The inhibition rate of each experimental group", "result": "1.38 ± 0.53", "unit": "%"}, {"measurement": "inhibition at 4 µg/mL", "setting": "[3]; Homo sapiens, A-431, A431 cells, 4 μg/ml, read-out: The inhibition rate of each experimental group", "result": "5.63 ± 2.29", "unit": "%"}, {"measurement": "inhibition at 8 µg/mL", "setting": "[3]; Homo sapiens, A-431, A431 cells, 8 μg/ml, read-out: The inhibition rate of each experimental group", "result": "11 ± 4.71", "unit": "%"}, {"measurement": "inhibition at 16 µg/mL", "setting": "[3]; Homo sapiens, A-431, A431 cells, 16 μg/ml, read-out: The inhibition rate of each experimental group", "result": "18.6 ± 4.82", "unit": "%"}, {"measurement": "inhibition at 32 µg/mL", "setting": "[3]; Homo sapiens, A-431, A431 cells, 32 μg/ml, read-out: The inhibition rate of each experimental group", "result": "24.5 ± 9.69", "unit": "%"}, {"measurement": "inhibition at 64 µg/mL", "setting": "[3]; Homo sapiens, A-431, A431 cells, 64 μg/ml, read-out: The inhibition rate of each experimental group", "result": "31.4 ± 7.35", "unit": "%"}, {"measurement": "inhibition at 128 µg/mL", "setting": "[3]; Homo sapiens, A-431, A431 cells, 128 μg/ml, read-out: The inhibition rate of each experimental group", "result": "36.3 ± 10.8", "unit": "%"}]}]}
